Reference: US6440400B1, “Trimethylcylohexane derivatives and melanin-formation inhibitors and perfumeholding agents with the use of the same” (Takasago International Corporation, priority 1998, dated 2002)

Tested on: B-16 melanoma cells
Experiment: Melanin production inhibiting effect on chromatophore (visual whiteness of cell pellets)
Type: cell-based
Parameters: key: −: Equal to solvent control (black); +: Slightly different from solvent control (dark gray); ++: Markedly different from solvent control (pale gray); +++: No coloring of cells (white)
Conditions: 3 days culture with sample
Procedure: A plastic culture flask (25 cm^2) was inoculated with 8×10^4 B-16 melanoma cells, which were incubated in a DMEN medium (Nippon Suisan Kaisha, Ltd.) containing 10% serum in the presence of 5% CO2 at 37° C. After 3 days, a test sample diluted with EtOH was added to the medium at a concentration of 0.4, 0.8, 1.6, 3.1 and 6.2 ppm and the culture was continued for further 3 days.
After completion of the culture to remove the culture followed by washing with a phosphate buffer (hereinafter referred to as PBS), the cells were removed from the flask using a medium containing trypsin and EDTA (ethylenediamine tetraacetic acid) and the cells were recovered from the cell suspension by centrifugation.
The cells thus obtained were washed once with PBS and then the pellets were evaluated visually for their whiteness.
Similarly to Example 16, the melanin production inhibiting effects of arbutin, tetrahydroionol, β-ionone, dihydro-β-ionone and the novel compounds of the invention (1′i, 1″i, 1^4′i) on a chromatophore were determined.

| SMILES | whiteness of cell pellets, evaluated visually (1.6 ppm) | whiteness of cell pellets, evaluated visually (3.1 ppm) | whiteness of cell pellets, evaluated visually (6.2 ppm) | whiteness of cell pellets, evaluated visually (0.4 ppm) | whiteness of cell pellets, evaluated visually (0.8 ppm) |
| --- | --- | --- | --- | --- | --- |
| CCC(O)CCC1C(C)CCCC1(C)C (centres unmarked) [1^4′b] | + | ++ | +++ |  |  |
| CCCC(O)CCC1C(C)CCCC1(C)C (centres unmarked) [1^4′c] | + | ++ | +++ |  |  |
| CC(C)C(O)CCC1C(C)CCCC1(C)C (centres unmarked) [1^4′e] | + | ++ | +++ |  |  |
| CC(C)CC(O)CCC1C(C)CCCC1(C)C (centres unmarked) [1^4′g] | ++ | +++ | +++ |  |  |
| CCC(=O)C=CC1C(C)CCCC1(C)C (centres unmarked) [1′b] | + | ++ | +++ |  |  |
| CCCC(=O)C=CC1C(C)CCCC1(C)C (centres unmarked) [1′c] | + | ++ | +++ |  |  |
| CC(C)CC(=O)C=CC1C(C)CCCC1(C)C (centres unmarked) [1′g] | + | ++ | +++ |  |  |
| CC1CCCC(C)(C)C1C=CC(=O)C(C)(C)C (centres unmarked) [1′h] | + | ++ | +++ |  |  |
| CCCCCC(=O)C(C)=CC1C(C)CCCC1(C)C (centres unmarked) [1′x, 1-(2′,2′,6′-Trimethylcyclohexan-1′-yl)-2-methyloctan-1-en-3-one] | + | ++ | +++ |  |  |
| CCC(O)C=CC1C(C)CCCC1(C)C (centres unmarked) [1″b] | + | ++ | +++ |  |  |
| CCCC(O)C=CC1C(C)CCCC1(C)C (centres unmarked) [1″c] | ++ | +++ | +++ |  |  |
| CC(C)CC(O)C=CC1C(C)CCCC1(C)C (centres unmarked) [1″g] | +++ | +++ | +++ |  |  |
| CCC(O)C(C)=CC1C(C)CCCC1(C)C (centres unmarked) [1″u] | + | ++ | +++ |  |  |
| OC[C@H]1O[C@@H](Oc2ccc(O)cc2)[C@H](O)[C@@H](O)[C@@H]1O [ARBUTIN, arbutin, reference compound] | − | − | + | − | − |
